How the values were obtained:
[1] = test system: adult human bone marrow CD34+ cells; assay: Phenotypic analysis (FACS) of marrow CD34+ cells after ex vivo culture; format: cell-based; settings: 9 days of culture; single agent; % of total cells
Description: To promote cell division of isolated CD34^+ cells, a stroma-free suspension culture was established as previously described (Bazil et al., 1995). Tissue culture dishes (35 mm; Costar, Corning, N.Y.) were seeded with 1×10^5 CD34^+cells/well in 2.5 mL Iscove modified Dulbecco medium (IMDM) (Biowhittaker, Walkersville, Md.) containing 30% FBS and a cocktail of cytokines specifically thought to promote exit from G0/G1 in primitive HSC populations which consisted of 100 ng/mL recombinant stem cell factor (SCF), 100 ng/mL FLT-3 ligand, 100 ng/mL thrombopoetin (TPO) and 50 ng/mL of interleukin (IL)-3, (all from Amgen Inc., Thousand Oaks, Calif.).
Cells were maintained in the media and incubated at 37° C. in a 100%-humidified atmosphere containing 5% CO2 for 48 hours. After intial 16 hours of incubation cells were exposed to the demethylating agent, 5-aza2′deoxycitidine (5azaD) (Sigma Chemicals, St. Louis, Mo.) at a concentration of 10^−6M. After 48 hours, cells were washed by centrifugation and then equally distributed to new tissue culture dishes in 2.5 mL IMDM supplemented with 30% FBS containing cytokines known to promote terminal differentiation of HSC into multiple hematopoietic lineages. The cocktail of cytokines contained 100 ng/mL of SCF, 50 ng/ml of granulocyte colony-stimulating factor (G-CSF), 50 ng/mL of IL-3, 50 ng/ml of IL-6 and 5 units (U)/mL of recombinant erythropoietin (EPO) (Amgen Inc., Thousand Oaks, Calif.). Cells at this time point were exposed to Trichostatin (TSA) (Sigma Chemical., St. Louis, Mo.) at 5 ng/mL and the culture was continued for an additional 7 days. At the end of the culture period cells were counted for viability by the trypan blue exclusion method using an inverted microscope. 5-fluorouracil (5-FU) (Sigma Chemical., St. Louis, Mo.) was used at a concentration of 200 μg/ml and added at the 16 hour time point instead of 5azaD and the cultures carried on as described above with no addition of TSA.
The phenotypic characteristics of the CD34^+ cells were analyzed using FACS. After 9 days of culture, expanded marrow CD34^+ cells were analyzed for primitive HSC phenotype, previously defined, by using flow activated-cell sorter (FACS) (Becton Dickinson (BD) FACS Calibur, San Jose, Calif.). Cells were stained with anti-human CD34^+ moAb conjugated either to fluorescein isothiocyanate (FITC) or phycoerythrin (PE) and another moAb including anti-CD38, anti-CD117, anti-CD90. To determine the lineage positive cells a panel of moab all conjugated to FITC (anti-CD2, anti-CD14, anti-CD15, anti-CD19 and anti-GlyA) (all antibodies were purchased from BD) were utilized. All anaylsis were paired with the corresponding matched isotype control of the specific moAb utilized. All staining and washes were performed in DPBS (Biowhittaker, Walkersville Md.) and 0.5% BSA (Sigma, Chemicals Co., St. Louis, Mo.). Immediately prior to FACS anaylsis, […] propidium iodide (PI) (Sigma, Chemicals Co., St. Louis, Mo.) was added for the exclusion of nonviable cells for phenotypic analysis. Using Cell-Quest software (BD), at least 10,000 live cells were acquired for each analysis.

NOD/SCID mice = assay: Hematopoietic colonies cloned from NOD/SCID mouse marrow 7 weeks after human grafts; format: in vivo; settings: for Estimated Number of Human Colonies: % human cells multiplied by total number of colonies; for % Human Cells: pooled colonies stained for human CD45/CD33, grafts 7 weeks earlier
Description: After 7 weeks of passage in vivo of human grafts in NOD/SCID mice, marrow cells from mice were then plated in methylcellulose assays at 100,000 cells/plate as previously described. After 14 days of incubation the number of hematopoietic colonies were enumerated.
Mice were given 300cGy of total body gamma irradiation and human grafts were injected via the tail vein. Cytokines including SCF, IL-3 and GM-CSF at 5 ug/mouse were injected intraperitoneally on alternate days following injection of human grafts during the first week of transplant. Sulfamethoxazole (40 mg/mL) and Trimethoprim (8 mg/mL)(SMX/TMZ; Elkins-Sinn, Cherry Hill, N.J.) were added in the drinking water for 3 days post injection and then subsequently for 3 days beginning the second week of transplant. Mice were sacrificed after 7 weeks. Femurs and tibias were flushed with Hank's balanced salt solution (HBSS) (Biowhittiker) with 2% FBS (Hyclone) and 0.02% sodium azide and cell counts performed. Cells were preincubated with 1 mg/ml of human gamma globulin in staining to block human Fc receptors. Murine Fc receptors were blocked by a second incubation of the cells in 2.4G2 (an anti-mouse Fc receptor moAb). Marrow cells were analyzed by flow cytometry to detect human cell engraftment as previously described.^29 Briefly to quantitate the total number of human cells present an aliquot of cells was stained with anti-CD45-FITC(BD) and anti-CD71-FITC(BD). This aliquot was also stained with anti-CD19-PE(BD) and cyanine-5-succinimidyl-labeled anti-CD34 (BD). After 7 weeks, marrow cells were plated in methylcellulose as previously described. Colonies from these CFC were then pooled and stained with moAb against CD33 and CD45 (BD) to assess the presence of human cells.

[2] = test system: adult human bone marrow CD34+ cells; assay: Cobblestone area-forming cell (CAFC) assay in limiting dilution; format: cell-based; settings: for CAFC/10,000 Cells: after 9 days of culture, unfractionated, cobblestone areas counted after 5 weeks
Description: The ability of primitive HSC to form cobblestone areas (CA) in long term marrow cultures has been used as an in vitro surrogate progenitor HSC assay (Breems et al., Leukemia, 8:1095-1104, 1994, Lefkovits et al., Immunol. Today, 5:265-268, 1984; Cross et al., Curr. Opin. Genet. Dev., 5:609-613, 1997). CD34^+ cells after 9 days of culture from each condition were plated in limiting dilution in flat-bottomed 96-well plates (Costar) onto confluent, irradiated (7000cGy) monolayers of the murine stromal fibroblast line M2-10B4 (a gift from Dr. C. Eaves, Vancouver, BC, Canada). Each well contained 200 μL of a 50:50 mixture of IMDM and RPMI with 10% FBS. A cocktail of growth factors, including 100 ng/mL SCF, 100 ng/mL leukemia inhibitory factor (LIF), 50 ng/mL IL-3, 50 ng/mL IL-6 and 50 ng/mL granulocyte-monocyte colony stimulating factor (GM-CSF) (Amgen, Thousand Oaks, Calif.).
The cultures were fed weekly by replacement of one half of the culture volume with fresh medium containing the above cytokines at 2 times the previously defined concentration. After 5 weeks of culture in a humidified incubator at 37° C. containing 5% CO2, the number of CA were ennumerated. The CAFC frequency was computed by means of minimization of chi regression to the cell number at which 37% of wells were negative for CA formation, with 95% statistical precision using L-Calc (Limiting dilution calculation) software (Stem Cell Inc., Vancouver, Canada; Lefkovits et al., Curr. Opin. Genet. Dev. 5:609-613, 1997).

Structure (SMILES) | CD34+ CD90+ % [1] [%] | CD34+ CKit lo % [1] [%] | CD34+ Lin− % [1] [%] | CD34+CD38− % [1] [%] | CD34+CD133+ % [1] [%] | Total CD34+ % [1] [%] | Estimated Number of Human Colonies (NOD/SCID mice) | secondary hematopoietic colonies from marrow of grafted mice (NOD/SCID mice; plated in semisolid media with human cytokines) | % Human Cells (NOD/SCID mice) [%] | fold increase in the number of CAFC over the primary cells ([2]; 9 days with cytokines) [fold] | CAFC/10,000 Cells [2] | numbers of CAFC relative to cytokines alone ([2]; 9 days with cytokines)
Nc1ncn([C@H]2C[C@H](O)[C@@H](CO)O2)c(=O)n1 [5azaD, 5-aza2′deoxycitidine] | 7 | 19 | 30 | 20 | 12 | 30 | 9 | formed significant numbers of secondary hematopoietic colonies | 12 | 1.9 | 96 CAFC/10,000 cells | 
CC(/C=C/C(=O)NO)=C\[C@@H](C)C(=O)c1ccc(N(C)C)cc1 [TSA, Trichostatin A] | 0.8 | 3 | 4 | 1.8 | 0.45 | 4 | 0 |  | 0 |  | 16 CAFC/10,000 cells | comparable numbers of CAFC as cultures receiving cytokines alone

— patent US7927785B2, “Methods for in vitro expansion of hematopoietic stem cells” (The Board of Trustees of the University of Illinois, priority 2002, dated 2011)
